Laboratory results as given in ChEMBL document CHEMBL1131556, “The discovery of orally available thrombin inhibitors: studies towards the optimisation of CGH1668” (Bioorg Med Chem Lett, 1998).

What was measured:
Prothrombin = Prothrombin (Homo sapiens, UniProt P00734); assay: In vitro binding affinity for human thrombin.
[1] = Activated partial thromboplastin time (APTT) was determined by the influence on doubling of a human clotting time assay; format: functional

| Structure (SMILES) | Ki (Prothrombin) | Activity [1] |
| --- | --- | --- |
| Nc1ccc(C[C@H](NS(=O)(=O)c2cnccc2N[C@@H](Cc2ccccc2)CN2CCOCC2)C(=O)N2CCC(CCF)CC2)cc1 | 22 nM | 2.9 µM |
| Nc1ccc(C[C@H](NS(=O)(=O)c2cnccc2N[C@@H](Cc2ccccc2)CN2CCCCC2)C(=O)N2CCC(CCF)CC2)cc1 | 25 nM | 6.1 µM |
| O=C([C@H](Cc1ccccc1)NS(=O)(=O)c1cnccc1N[C@H](CO)Cc1ccccc1)N1CCC(CCF)CC1 | 100 nM | 11.5 µM |
| Nc1ccc(C[C@H](NS(=O)(=O)c2cnccc2N[C@H](CNCCO)Cc2ccccc2)C(=O)N2CCC(CCF)CC2)cc1 | 72 nM | 2 µM |
| CCCNC[C@H](Cc1ccccc1)Nc1ccncc1S(=O)(=O)N[C@@H](Cc1ccc(N)cc1)C(=O)N1CCC(CCF)CC1 | 47 nM | 3.3 µM |
| CCN(CC)C[C@H](Cc1ccccc1)Nc1ccncc1S(=O)(=O)N[C@@H](Cc1ccc(N)cc1)C(=O)N1CCC(CCF)CC1 | 45 nM | 3.56 µM |
| Nc1ccc(C[C@H](NS(=O)(=O)c2cnccc2N[C@@H](Cc2ccccc2)CN2CCCC2)C(=O)N2CCC(CCF)CC2)cc1 | 48 nM | 3.4 µM |
| CCCCNC[C@H](Cc1ccccc1)Nc1ccncc1S(=O)(=O)N[C@@H](Cc1ccc(N)cc1)C(=O)N1CCC(CCF)CC1 | 43 nM | 5.1 µM |
| CNc1ccc(C[C@H](NS(=O)(=O)c2cnccc2N[C@H](CO)Cc2ccccc2)C(=O)N2CCC(CCF)CC2)cc1 | 12 nM | 4.1 µM |
| Nc1ccc(C[C@H](NS(=O)(=O)c2cnccc2N[C@H](CO)CC2CCCCC2)C(=O)N2CCC(CCF)CC2)cc1 | 18 nM | 2.6 µM |
| CNC[C@H](CC1CCCCC1)Nc1ccncc1S(=O)(=O)N[C@@H](Cc1ccc(N)cc1)C(=O)N1CCC(CCF)CC1 | 33 nM | 2.8 µM |
| Nc1ccc(C[C@H](NS(=O)(=O)c2cnccc2N[C@@H](Cc2ccccc2)CN2CCNC(=O)C2)C(=O)N2CCC(CCF)CC2)cc1 | 90 nM | 2.43 µM |
| CC(=O)N1CCN(C[C@H](Cc2ccccc2)Nc2ccncc2S(=O)(=O)N[C@@H](Cc2ccc(N)cc2)C(=O)N2CCC(CCF)CC2)CC1 | 24 nM | 2.4 µM |
| Nc1ccc(C[C@H](NS(=O)(=O)c2cnccc2N[C@H](COCCO)Cc2ccccc2)C(=O)N2CCC(CCF)CC2)cc1 | 49 nM | 2.5 µM |
| CCC1CCN(C(=O)[C@H](Cc2ccc(N)cc2)NS(=O)(=O)c2cnccc2N[C@H](CO)Cc2ccccc2)CC1 | 110 nM | 5.5 µM |
| O=C([C@H](Cc1ccc(O)cc1)NS(=O)(=O)c1cnccc1N[C@H](CO)Cc1ccccc1)N1CCC(CCF)CC1 | 41 nM | 1.91 µM |
| O=C([C@H](Cc1ccc(F)cc1)NS(=O)(=O)c1cnccc1N[C@H](CO)Cc1ccccc1)N1CCC(CCF)CC1 | 65 nM | 11.7 µM |
| Nc1ccc(C[C@H](NS(=O)(=O)c2cnccc2N[C@@H](Cc2ccccc2)CN2CCC(O)CC2)C(=O)N2CCC(CCF)CC2)cc1 | 19 nM | 1.73 µM |
| CCNC[C@H](Cc1ccccc1)Nc1ccncc1S(=O)(=O)N[C@@H](Cc1ccc(N)cc1)C(=O)N1CCC(CCF)CC1 | 99 nM | 3.2 µM |
| COCCN(CCOC)C[C@H](Cc1ccccc1)Nc1ccncc1S(=O)(=O)N[C@@H](Cc1ccc(N)cc1)C(=O)N1CCC(CCF)CC1 | 19 nM | 3.7 µM |
| C[C@H](Cc1ccccc1)Nc1ccncc1S(=O)(=O)N[C@@H](Cc1ccc(N)cc1)C(=O)N1CCC(CCF)CC1 | 18 nM | 7.1 µM |

Now from value to compound, other results behind:

| Ki (Prothrombin) | Structure (SMILES) | Activity [1] |
| --- | --- | --- |
| 36 nM | COc1ccc(C[C@H](NS(=O)(=O)c2cnccc2N[C@H](CO)Cc2ccccc2)C(=O)N2CCC(CCF)CC2)cc1 | 8.1 µM |
| 15 nM | COc1ccc(C[C@@H](C)Nc2ccncc2S(=O)(=O)N[C@@H](Cc2ccc(N)cc2)C(=O)N2CCC(CCF)CC2)cc1 | 9 µM |
| 19 nM | COc1ccc(C[C@@H](CO)Nc2ccncc2S(=O)(=O)N[C@@H](Cc2ccc(N)cc2)C(=O)N2CCC(CCF)CC2)cc1 | 2.9 µM |
| 634 nM | Nc1ccc(C[C@H](NS(=O)(=O)c2cnccc2N[C@H](CO)Cc2ccccc2)C(=O)N2CCC(CCO)CC2)cc1 | 7.4 µM |
| 49 nM | COc1ccc(C[C@@H](CO)Nc2ccncc2S(=O)(=O)N[C@@H](Cc2ccc(N)cc2)C(=O)N2CCC(CCF)CC2)cc1OC | 2.5 µM |
| 24 nM | CN(C)C[C@H](Cc1ccccc1)Nc1ccncc1S(=O)(=O)N[C@@H](Cc1ccc(N)cc1)C(=O)N1CCC(CCF)CC1 | 3.4 µM |
| 35 nM | CNC[C@H](Cc1ccccc1)Nc1ccncc1S(=O)(=O)N[C@@H](Cc1ccc(N)cc1)C(=O)N1CCC(CCF)CC1 | 2.4 µM |
| 39 nM | Nc1ccc(C[C@H](NS(=O)(=O)c2cnccc2N[C@H](CO)Cc2ccccc2)C(=O)N2CCC(CCF)CC2)cc1 | 2.5 µM |
| 27 nM | Nc1ccc(C[C@H](NS(=O)(=O)c2cnccc2N[C@H](CO)Cc2ccccc2)C(=O)N2CCC(CCCl)CC2)cc1 | 4.4 µM |
